Measurements from US9879023B2, “Therapeutic compounds” (Gilead Sciences, Inc., priority 2011, dated 2018).

These compounds were tested on HIV-IIIb (MT-4 cells) (assay: Test A: Antiviral Assays in MT4 Cells). Conditions: Human immunodeficiency virus 1, IIIB, MT4, 120 h, MT-4 cells infected with HIV-IIIb (0.004 m.o.i.), 5 days incubation, CellTiter-Glo readout; read-out: EC50.
Type: cell-based
Compound `Cc1cc2nc(C(N)=O)sc2c(-c2ccc3c4c(ccnc24)CCO3)c1[C@H](OC(C)(C)C)C(=O)O` [Compound 40, (S)-2-tert-butoxy-2-((S)-2-carbamoyl-7-(2,3-dihydropyrano[4,3,2-de]quinolin-7-yl)-5-methylbenzo[d]thiazol-6-yl)acetic acid] has an EC50 of 0.722 µM.
`Cc1cc2nc(N(C)C)sc2c(-c2ccc3c4c(ccnc24)CCO3)c1[C@H](OC(C)(C)C)C(=O)O` [Compound 42, (S)-2-tert-butoxy-2-((S)-7-(2,3-dihydropyrano[4,3,2-de]quinolin-7-yl)-2-(dimethylamino)-5-methylbenzo[d]thiazol-6-yl)acetic acid] showed an EC50 of 0.0103 µM.
For `Cc1cc2nc(N(C)Cc3ccccc3)sc2c(-c2ccc3c4c(ccnc24)CCO3)c1[C@H](OC(C)(C)C)C(=O)O` [Compound 63, (2S)-2-(2-(benzyl(methyl)amino)-7-(2,3-dihydropyrano[4,3,2-de]quinolin-7-yl)-5-methylbenzo[d]thiazol-6-yl)-2-tert-butoxyacetic acid], the EC50 was 0.351 µM.
For `Cc1cc2nc(C3CC3)sc2c(-c2ccc3c4c(cccc24)CCO3)c1[C@H](OC(C)(C)C)C(=O)O` [Compound 85, (S)-2-tert-butoxy-2-((S)-2-cyclopropyl-7-(2,3-dihydrobenzo[de]chromen-7-yl)-5-methylbenzo[d]thiazol-6-yl)acetic acid], the EC50 was 0.0664 µM.
